Experimental data published in US20050203188A1, “Fungicidal mixtures based on benzamideoxime derivatives, benzophenones and on an azole” (priority 2002, published 2005).

Tests used:
[1] = test system: Erysiphe [syn. Blumeria] graminis forma specialis tritici; experiment: Activity against mildew of wheat (protective spray, potted wheat seedlings cv. Kanzler); assay type: in vivo; conditions: single active, 7 days after inoculation
Experimental: (§1) The active compounds are prepared separately or together as a 10% strength emulsion in a mixture of 63% by weight of cyclohexanone and 27% by weight of emulsifier and diluted with water to the desired concentration.
(§2) Evaluation is carried out by determining the infected leaf areas in percent. These percentages are converted into efficacies. The efficacy (E) is calculated as follows using Abbot's formula: E=(1−α)*100/β • α corresponds to the fungal infection of the treated plants in % and • β corresponds to the fungal infection of the untreated (control) plants in %
(§3) An efficacy of 0 means that the infection level of the treated plants corresponds to that of the untreated control plants; an efficacy of 100 means that the treated plants were not infected.
(§4) The expected efficacies of the active compound mixtures were determined using Colby's formula [S. R. Colby, Weeds 15, 20-22 (1967)] and compared with the observed efficacies. Colby's formula: E=x+y−x−y/100 • E expected efficacy, expressed in % of the untreated control, when using the mixture of the active compounds A and B at the concentrations a and b • x efficacy, expressed in % of the untreated control, when using active compound A at a concentration of a • y efficacy, expressed in % of.the untreated control, when using active compound B at a concentration of b
Leaves of potted wheat seedlings of the cultivar “Kanzler” were sprayed to runoff point with an aqueous suspension having the concentration of active compound stated below. The suspension or emulsion had been prepared from a stock solution comprising 10% of active compound in a mixture consisting of 85% of cyclohexanone and 5% of emulsifier. 24 hours after the spray coating had dried on, the seedlings were dusted with spores of mildew of wheat (Erysiphe [syn. Blumeria] graminis forma specialis tritici). The test plants were then placed in a greenhouse at temperatures between 20 and 24° C. and 60 to 90% relative atmospheric humidity. After 7 days, the extent of the mildew development was determined visually in % infection of the total leaf area.
The visually determined percentages of infected leaf area were converted into efficacies as % of the untreated control. An efficacy of 0 means the infection level of the treated plants corresponds to that of the untreated control; an efficacy of 100 means 0% infection. The expected efficacies of the combinations of active compounds were determined using Colby's formula (Colby, S. R. “Calculating synergistic and antagonistic responses of herbicide Combinations”, Weeds, 15, pp., 20-22, 1967) and compared with the observed efficacies.

Puccinia recondita = experiment: Curative activity against brown rust of wheat (potted wheat seedlings cv. Kanzler); assay type: in vivo; conditions: single active, 7 days
Experimental: as §1, §2, §3, §4
Leaves of potted wheat seedlings of the cultivar “Kanzler” were dusted with spores of brown rust (Puccinia recondita). The pots were then placed in a chamber with high atmospheric humidity (90 to 95%), at 20 to 22° C., for 24 hours. During this period of time, the spores germinated and the germinal tubes penetrated into the leaf tissue. The next day, the infected plants were sprayed to runoff point with an aqueous suspension having the concentration of active compound stated below. The suspension or emulsion had been prepared from a stock solution comprising 10% of active compound in a mixture consisting of 85% of cyclohexanone and 5% of emulsifier. After the spray coating had dried on, the test plants were cultivated in a greenhouse at temperatures between 20 and 22° C. and at 65 to 70% relative atmospheric humidity for 7 days. The extent of the rust fungus development on the leaves was then determined.
The visually determined percentages of infected leaf areas were converted into efficacies as % of the untreated control. An efficacy of 0 means that the infection level of the treated plants corresponds to that of the untreated control; an efficacy of 100 means 0% infection. The expected efficacies of the combinations of active compounds were determined using Colby's formula (Colby, S. R. “Calculating synergistic and antagonistic responses of herbicide Combinations”, Weeds, 15, pp. 20-22, 1967) and compared with the observed efficacies.

## COC(=O)N(OC)c1ccccc1COc1ccn(-c2ccc(Cl)cc2)n1 [Compound IV = pyraclostrobin, pyraclostrobin]
[1]; 0.015 ppm in spray liquor
  Efficacy in % of the untreated control: 0%
[1]; 0.06 ppm in spray liquor
  Efficacy in % of the untreated control: 0%
[1]; 0.25 ppm in spray liquor
  Efficacy in % of the untreated control: 0%
[1]; 1 ppm in spray liquor
  Efficacy in % of the untreated control: 33%
Puccinia recondita; 0.015 ppm in spray liquor
  Efficacy in % of the untreated control: 22%
Puccinia recondita; 0.06 ppm in spray liquor
  Efficacy in % of the untreated control: 33%
Puccinia recondita; 0.25 ppm in spray liquor
  Efficacy in % of the untreated control: 33%
Puccinia recondita; 1 ppm in spray liquor
  Efficacy in % of the untreated control: 78%

## COc1cc(C)c(C(=O)c2c(OC)ccc(Br)c2C)c(OC)c1OC [Compound II = metrafenone, metrafenone]
[1]; 0.015 ppm in spray liquor
  Efficacy in % of the untreated control: 33%
[1]; 0.06 ppm in spray liquor
  Efficacy in % of the untreated control: 44%
[1]; 0.25 ppm in spray liquor
  Efficacy in % of the untreated control: 56%
[1]; 1 ppm in spray liquor
  Efficacy in % of the untreated control: 72%
Puccinia recondita; 0.015 ppm in spray liquor
  Efficacy in % of the untreated control: 0%
Puccinia recondita; 0.06 ppm in spray liquor
  Efficacy in % of the untreated control: 0%
Puccinia recondita; 0.25 ppm in spray liquor
  Efficacy in % of the untreated control: 0%
Puccinia recondita; 1 ppm in spray liquor
  Efficacy in % of the untreated control: 0%

## Fc1ccc(C2(Cn3cncn3)OC2c2ccccc2Cl)cc1 (stereo not drawn) [Compound III = epoxiconazole, epoxiconazole]
[1]; 0.015 ppm in spray liquor
  Efficacy in % of the untreated control: 0%
[1]; 0.06 ppm in spray liquor
  Efficacy in % of the untreated control: 33%
[1]; 0.25 ppm in spray liquor
  Efficacy in % of the untreated control: 44%
[1]; 1 ppm in spray liquor
  Efficacy in % of the untreated control: 56%
Puccinia recondita; 0.015 ppm in spray liquor
  Efficacy in % of the untreated control: 0%
Puccinia recondita; 0.06 ppm in spray liquor
  Efficacy in % of the untreated control: 67%
Puccinia recondita; 0.25 ppm in spray liquor
  Efficacy in % of the untreated control: 89%
Puccinia recondita; 1 ppm in spray liquor
  Efficacy in % of the untreated control: 94%
